Experimental findings from ChEMBL document CHEMBL4007448, “The derivatives of Pulsatilla saponin A, a bioactive compound from Pulsatilla chinensis: Their synthesis, cytotoxicity, haemolytic toxicity and mechanism of action” (Eur J Med Chem, 2017) are described below.

The subject of one series is H22. As to the kind of experiment: Antitumor activity against […] xenografted in mouse assessed as tumor growth inhibition at 60 mg/kg/day, ip for 14 days relative to control. The class given is functional. Conditions: 336 h, read-out: TGI.
Series [1] deals with Mus musculus. As to the kind of experiment: Toxicity in mouse xenografted with […] assessed as hematuria at 60 mg/kg/day, ip for 14 days. The class given is organism-based. The following applies: in vivo, 336 h.
Series [2] relates to Mus musculus. As to the kind of experiment: Toxicity in mouse xenografted with […] assessed as death at 60 mg/kg/day, ip for 14 days. The series is classed as organism-based. Conditions: in vivo, 336 h.
For the next series, the system named is Blood. Put plainly: Drug metabolism in mouse blood assessed as Pulsatilla saponin A formation at 60 mg/kg/day, ip for 14 days. The class given is ADME, organism-based. The following applies: in vivo, 336 h.

For the compound `C[C@@H]1O[C@@H](O[C@H]2[C@H](O[C@H]3CC[C@@]4(C)[C@@H](CC[C@]5(C)[C@@H]4CC=C4[C@@H]6CC(C)(C)CC[C@]6(C(=O)NCC(=O)O)CC[C@]45C)[C@]3(C)CO)OC[C@H](O)[C@@H]2O)[C@H](O)[C@@H](O)[C@H]1O`, in the series on H22, the inhibition in vivo at 60 mg/kg/day was determined as 35.6%. Further, the Activity result with Mus musculus [1] and in the series with Mus musculus [2] was “Non-Toxic” in each case. The Drug metabolism entry in the series with Blood is given as “Metabolite_Notdetected”.
